In patent US5273991A, “Imidazole-containing compositions and methods of use thereof analogs of distamycin” (Research Corporation Technologies, Inc., priority 1992, dated 1993):

Experiments:
[1] = test system: HOP-18; experiment: NCI cytotoxicity screen (SRB); format: cell-based, human; settings: subsequent test date
[2] = test system: OVCAR-8; experiment: NCI cytotoxicity screen (SRB); format: cell-based, human
[3] = test system: 1GROV1; experiment: NCI cytotoxicity screen (SRB); format: cell-based, human
[4] = test system: UACC-62; experiment: NCI cytotoxicity screen (SRB); format: cell-based, human
[5] = test system: UACC-257; experiment: NCI cytotoxicity screen (SRB); format: cell-based, human
[6] = test system: calf thymus DNA; experiment: circular dichroism (CD) titration, calf thymus DNA; format: binding; settings: for isobestic point: calf thymus DNA; for binding site size: from saturation point r'~0.25; for saturation point r': moles of drug to moles of DNA base pairs
Experimental: The DNA binding properties of the present compounds were assessed by circular dichroism (CD) titration experiments. Methods for CD titration can be found, for example, in Zimmer et al. (1986) Prog. Biophys. Molec. Biol 47, 31. The conformation of DNA can be readily determined by CD experiments, and for B-DNA, characteristic positive and negative Cotton effects are observed at 260 and 245 nm, respectively.
The interaction of Compounds 6-10 to a number of DNAs [calf thymus, poly(dA dT) and poly(dG dC)] were analyzed by CD titration studies. All the CD titration experiments were performed using identical procedures, concentrations of DNA, and increments of drug:DNA ratios (or `r`, i.e. moles of drug to moles of DNA base pairs). Therefore, the differences observed in the CD spectra for the titration of each of the compounds to the polydeoxynucleotides may be directly compared to reflect their DNA binding properties.
All experiments were performed with a continuous flow of nitrogen purging the polarimeter. A 1 mm path length jacketed cell was used and all experiments were done at room temperature. Initially, DNA [0.02 μ moles (base pairs), 130 μL] was placed in the cell and the spectrum of the DNA alone was collected. Aliquots of drug were added and the spectra collected. The drug solutions were 1 mM and amounts of the drug added correspond to a drug to base pair ratio of 0.05, 0.10, 0.15, 0.20, 0.25, 0.30, 0.40, 0.50, 0.60, 0.80, 1.00. The scan parameters were set and standard for all experiments. The spectra were collected from 400 nm to 200 nm. The sensitivity was set at 1 mdeg and the scan speed was set at 20 nm per minute. Three scans were accumulated and automatically averaged by the computer. The λmax and ellipticity (mdeg) for each spectrum were collected from the raw scans and the final plots were smoothed by the noise reduction program on the computer. […] The induced CD band is presumably due to the uv absorption π to π^* transition of the drug in the drug:DNA complex. […] Therefore interaction of these drugs with DNA causes only minor conformational changes in the double helix.

[7] = test system: CCRF-DEM; experiment: NCI cytotoxicity screen (SRB); format: cell-based, human; settings: 48 h; Leukemia CCRF-DEM

SMILES	IC50 [1] [µM]	IC50 ([2]; 48 h, Ovarian Cancer OVCAR-8) [µM]	IC50 ([2]; OVCAR-8, subsequent test date) [µM]	IC50 ([3]; 1GROV1, subsequent test date) [µM]	IC50 ([3]; 48 h, Ovarian Cancer 1GROV1) [µM]	IC50 ([4]; 48 h, Melanoma UACC-62) [µM]	IC50 ([4]; UACC-62, subsequent test date) [µM]	IC50 ([5]; 48 h, Melanoma UACC-257) [µM]	IC50 ([5]; UACC-257, subsequent test date) [µM]	negative CD band, ellipticity ([6]; 310 nm, r'=0.2, low drug concentration) [mdeg]	negative CD band, ellipticity ([6]; 315 nm, r'>0.4, higher drug concentrations)	weak positive CD band, ellipticity ([6]; 340 nm, r'=0.2, low drug concentration) [mdeg]	isobestic point [6] [nm]	binding site size [6]	saturation point r' [6]	positive CD band at 340 nm, in words ([6]; r'>0.4, higher drug concentrations)	weak negative CD band, ellipticity ([6]; 335 nm, r'=0.2) [mdeg]	IC50 [7] [µM]
CN(C)CCNC(=O)c1nc(NC(=O)c2nc(NC(=O)c3ccc(N(CCCl)CCCl)cc3)cn2C)cn1C [Compound 6, N-(N',N'-dimethylaminoethyl)-1-methyl-4-{4-[4,4-bis(2-chloroethyl)aminobenzamido]-1-methylimidazole-2-carboxamido}imidazole-2-carboxamide]	10.2	45.3	20.8	59.6	50	7.61	59.7	7.03	57.6	0.2	~ 3 mdeg	0.8	320	about four	~ 0.25	disappeared	–	–
CN(C)CCNC(=O)c1nc(NC(=O)c2nc(NC(=O)c3nc(NC(=O)c4ccc(N(CCCl)CCCl)cc4)cn3C)cn2C)cn1C [Compound 7, N-(N',N'-dimethylaminoethyl)-1-methyl-4-{1-methyl-4-[4-(4,4-bis-(2-chloroethyl)aminobenzamido)-1-methylimidazole-2-carboxamido]imidazole-2-carboxamido}imidazole-2-carboxamide]	–	–	–	–	–	–	–	–	–	–	–	–	300	four	~ 0.25	–	0.5	–
CN(C)CCNC(=O)c1nc(NC(=O)c2nc(NC(=O)c3nc(NC(=O)CCCc4ccc(N(CCCl)CCCl)cc4)cn3C)cn2C)cn1C [Compound 10, N-(N',N'-dimethylaminoethyl)-1-methyl-4-{1-methyl-4-[4-(4,4-bis(2-chloroethyl)aminophenyl-1-butanamido)-1-methylimidazole-2-carboxamido]imidazole-2-carboxamido}imidazole-2-carboxamide]	–	–	–	–	–	–	–	–	–	–	–	–	–	–	–	–	–	9.67
